Data from patent US10906915B2, “Substituted pyrazoloazepin-4-ones and their use as phosphodiesterase inhibitors” (LEO Pharma A/S, priority 2016, dated 2021).

These molecules were tested against human PDE4D catalytic domain (UniProt no. Q08499) (Homo sapiens (Human), UniProt Q08499) (assay: PDE4 assay (TR-FRET, FAM-cAMP cleavage)). Settings: read-out: PDE4 IC50 range.
human PDE4D catalytic domain, sequence (Q08499 380-740 limits assumed): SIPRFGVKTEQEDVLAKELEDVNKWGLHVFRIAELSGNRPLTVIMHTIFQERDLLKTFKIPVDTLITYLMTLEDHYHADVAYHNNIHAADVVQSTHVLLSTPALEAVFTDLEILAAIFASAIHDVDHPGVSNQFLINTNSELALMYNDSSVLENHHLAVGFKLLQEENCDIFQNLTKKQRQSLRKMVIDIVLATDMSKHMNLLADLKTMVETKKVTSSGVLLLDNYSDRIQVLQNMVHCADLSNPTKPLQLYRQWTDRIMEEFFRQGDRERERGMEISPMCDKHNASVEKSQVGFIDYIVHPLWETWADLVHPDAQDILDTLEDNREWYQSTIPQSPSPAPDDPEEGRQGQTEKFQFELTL
Assay type: biochemical
Method in brief: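 PDE4D catalytic domain ([…]) was incubated with unlabelled cAMP plus FAM-cAMP and titrated compound, stopped with binding buffer of metal-ion nanoparticles and Tb donor. AMP generation read by TR-FRET; IC50 as 50% inhibition of cleavage versus controls, reported as nM ranges.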
In the case of `CCc1nn(C[C@@H](C)COC(=O)c2cccc(C(=O)NC(C)C)c2)c2c1C(=O)NCC1(CCOCC1)C2` [Example 267, [(2R)-3-(3-ethyl-4-oxo-spiro[6,8-dihydro-5H-pyrazolo[4,3-c]azepine-7,4′-tetrahydropyran]-1-yl)-2-methyl-propyl] 3-(isopropylcarbamoyl)benzoate], the IC50 is reported as < 100 nM. With `CCc1nn(C[C@@H](C)COC(=O)c2cccc(C(=O)N3CCCC3)c2)c2c1C(=O)NCC1(CCOCC1)C2` [Example 268, [(2R)-3-(3-ethyl-4-oxo-spiro[6,8-dihydro-5H-pyrazolo[4,3-c]azepine-7,4′-tetrahydropyran]-1-yl)-2-methyl-propyl] 3-(pyrrolidine-1-carbonyl)benzoate] the IC50 was < 100 nM. `CCc1nn(C[C@@H](C)COC(=O)c2cccc(C(=O)N3CCCCC3)c2)c2c1C(=O)NCC1(CCOCC1)C2` [Example 269, [(2R)-3-(3-ethyl-4-oxo-spiro[6,8-dihydro-5H-pyrazolo[4,3-c]azepine-7,4′-tetrahydropyran]-1-yl)-2-methyl-propyl] 3-(piperidine-1-carbonyl)benzoate] was tested, and the IC50 was < 100 nM. In the case of `CCc1nn(C[C@@H](C)COC(=O)c2cccc(C(=O)N3CCNCC3)c2)c2c1C(=O)NCC1(CCOCC1)C2` [Example 270, [(2R)-3-(3-ethyl-4-oxo-spiro[6,8-dihydro-5H-pyrazolo[4,3-c]azepine-7,4′-tetrahydropyran]-1-yl)-2-methyl-propyl] 3-(piperazine-1-carbonyl)benzoate], the IC50 is reported as < 100 nM. In the case of `CCc1nn(C[C@@H](C)COC(=O)c2cccc(C(=O)N3CCOCC3)c2)c2c1C(=O)NCC1(CCOCC1)C2` [Example 271, [(2R)-3-(3-ethyl-4-oxo-spiro[6,8-dihydro-5H-pyrazolo[4,3-c]azepine-7,4′-tetrahydropyran]-1-yl)-2-methyl-propyl] 3-(morpholine-4-carbonyl)benzoate], the IC50 is reported as < 100 nM. For `CCc1nn(C[C@@H](C)COC(=O)c2cccc(C(=O)N3CCN(C)CC3)c2)c2c1C(=O)NCC1(CCOCC1)C2` [Example 272, [(2R)-3-(3-ethyl-4-oxo-spiro[6,8-dihydro-5H-pyrazolo[4,3-c]azepine-7,4′-tetrahydropyran]-1-yl)-2-methyl-propyl] 3-(4-methylpiperazine-1-carbonyl)benzoate], the IC50 was < 100 nM. With `CCc1nn(C[C@@H](C)COC(=O)c2cccc(C(=O)N3CCN(C(C)=O)CC3)c2)c2c1C(=O)NCC1(CCOCC1)C2` [Example 273, [(2R)-3-(3-ethyl-4-oxo-spiro[6,8-dihydro-5H-pyrazolo[4,3-c]azepine-7,4′-tetrahydropyran]-l-yl)-2-methyl-propyl] 3-(4-acetylpiperazine-1-carbonyl)benzoate] the IC50 was < 100 nM. With `CCc1nn(C[C@H](C)COC(=O)c2ccccc2)c2c1C(=O)NCC1(CCOCC1)C2` [Example 274, [(2S)-3-(3-ethyl-4-oxo-spiro[6,8-dihydro-5H-pyrazolo[4,3-c]azepine-7,4′-tetrahydropyran]-1-yl)-2-methyl-propyl] benzoate] the IC50 was < 100 nM. With `CCc1nn(C[C@H](C)COC(=O)c2ccc(C)cc2)c2c1C(=O)NCC1(CCOCC1)C2` [Example 275, [(2S)-3-(3-ethyl-4-oxo-spiro[6,8-dihydro-5H-pyrazolo[4,3-c]azepine-7,4′-tetrahydropyran]-1-yl)-2-methyl-propyl] 4-methylbenzoate] the IC50 was < 100 nM. In the case of `CCc1nn(C[C@H](C)COC(=O)c2cccc(F)c2)c2c1C(=O)NCC1(CCOCC1)C2` [Example 276, [(2S)-3-(3-ethyl-4-oxo-spiro[6,8-dihydro-5H-pyrazolo[4,3-c]azepine-7,4′-tetrahydropyran]-1-yl)-2-methyl-propyl] 3-fluorobenzoate], the IC50 is reported as < 100 nM. `CCc1nn(C[C@H](C)COC(=O)c2ccc(F)cc2)c2c1C(=O)NCC1(CCOCC1)C2` [Example 277, [(2S)-3-(3-ethyl-4-oxo-spiro[6,8-dihydro-5H-pyrazolo[4,3-c]azepine-7,4′-tetrahydropyran]-1-yl)-2-methyl-propyl] 4-fluorobenzoate] was tested, and the IC50 was < 100 nM. `CCc1nn(C[C@H](C)COC(=O)c2cccc(OC)c2)c2c1C(=O)NCC1(CCOCC1)C2` [Example 278, [(2S)-3-(3-ethyl-4-oxo-spiro[6,8-dihydro-5H-pyrazolo[4,3-c]azepine-7,4′-tetrahydropyran]-1-yl)-2-methyl-propyl] 3-methoxybenzoate] was tested, and the IC50 was < 100 nM. `CCc1nn(C[C@H](C)COC(=O)c2ccc(Cl)cc2)c2c1C(=O)NCC1(CCOCC1)C2` [Example 279, [(2S)-3-(3-ethyl-4-oxo-spiro[6,8-dihydro-5H-pyrazolo[4,3-c]azepine-7,4′-tetrahydropyran]-1-yl)-2-methyl-propyl] 4-chlorobenzoate] was tested, and the IC50 was < 100 nM. With `CCc1nn(CC(C)(C)COC(=O)C2CCCC2)c2c1C(=O)NCC1(CCOCC1)C2` [Example 281, [3-(3-ethyl-4-oxo-spiro[6,8-dihydro-5H-pyrazolo[4,3-c]azepine-7,4′-tetrahydropyran]-1-yl)-2,2-dimethyl-propyl] cyclopentanecarboxylate] the IC50 was < 100 nM. `CCc1nn(CC(C)(C)COC(=O)C(CC)CC)c2c1C(=O)NCC1(CCOCC1)C2` [Example 282, [3-(3-ethyl-4-oxo-spiro[6,8-dihydro-5H-pyrazolo[4,3-c]azepine-7,4′-tetrahydropyran]-1-yl)-2,2-dimethyl-propyl] 2-ethylbutanoate] was tested, and the IC50 was < 100 nM. With `CCc1nn(CC(C)(C)COC(=O)c2ccc(C)cc2)c2c1C(=O)NCC1(CCOCC1)C2` [Example 283, [3-(3-ethyl-4-oxo-spiro[6,8-dihydro-5H-pyrazolo[4,3-c]azepine-7,4′-tetrahydropyran]-1-yl)-2,2-dimethyl-propyl] 4-methylbenzoate] the IC50 was < 100 nM. For `CCc1nn(CC(C)(C)COC(=O)c2cccc(F)c2)c2c1C(=O)NCC1(CCOCC1)C2` [Example 284, [3-(3-ethyl-4-oxo-spiro[6,8-dihydro-5H-pyrazolo[4,3-c]azepine-7,4′-tetrahydropyran]-1-yl)-2,2-dimethyl-propyl] 3-fluorobenzoate], the IC50 was < 100 nM. For `CCc1nn(CC(C)(C)COC(=O)c2ccc(F)cc2)c2c1C(=O)NCC1(CCOCC1)C2` [Example 285, [3-(3-ethyl-4-oxo-spiro[6,8-dihydro-5H-pyrazolo[4,3-c]azepine-7,4′-tetrahydropyran]-1-yl)-2,2-dimethyl-propyl] 4-fluorobenzoate], the IC50 was < 100 nM. In the case of `CCc1nn(CC(C)(C)COC(=O)c2ccccc2F)c2c1C(=O)NCC1(CCOCC1)C2` [Example 286, [3-(3-ethyl-4-oxo-spiro[6,8-dihydro-5H-pyrazolo[4,3-c]azepine-7,4′-tetrahydropyran]-1-yl)-2,2-dimethyl-propyl] 2-fluorobenzoate], the IC50 is reported as < 100 nM. `CCc1nn(CC(C)(C)COC(=O)c2cccc(C#N)c2)c2c1C(=O)NCC1(CCOCC1)C2` [Example 287, [3-(3-ethyl-4-oxo-spiro[6,8-dihydro-5H-pyrazolo[4,3-c]azepine-7,4′-tetrahydropyran]-1-yl)-2,2-dimethyl-propyl] 3-cyanobenzoate] was tested, and the IC50 was < 100 nM. With `CCc1nn(CC(C)(C)COC(=O)c2ccc(C#N)cc2)c2c1C(=O)NCC1(CCOCC1)C2` [Example 288, [3-(3-ethyl-4-oxo-spiro[6,8-dihydro-5H-pyrazolo[4,3-c]azepine-7,4′-tetrahydropyran]-1-yl)-2,2-dimethyl-propyl] 4-cyanobenzoate] the IC50 was < 100 nM.
